Drawing on the RepoRT retention time repository (doi:10.1021/acs.analchem.2c02893), this text covers LC retention time for 78 compounds.

This series is described as follows: RP, Thermo Scientific Acclaim RSLC 120 C18, 100 × 2.1 mm, 2.2 µm, 30 °C, 0.2 mL/min, estimated dead time 1.1 min; A: 90% water + 10% methanol + 0.01% formic acid + 5 mM ammonium formate, pH 3.61; B: methanol + 0.01% formic acid + 5 mM ammonium formate, pH 3.61; gradient (min/%B) 0/1 1/1 2/39 13/99.9 15/99.9 15.1/1 20.1/1. To be noted: stereoisomer not certain.
For `Clc1ccccc1C(c1ccccc1)(c1ccccc1)n1ccnc1` [Clotrimazole], the LC retention time is 11.2 min.
As for `CCCCCCCCCCOc1cc2c(=O)c(C(=O)OCC)c[nH]c2cc1OCC` [Decoquinate], the LC retention time is 13.4 min.
In the case of `CCc1cc2c(s1)-n1c(C)nnc1CN=C2c1ccccc1Cl` [Etizolam], the LC retention time was 8.31 min.
The figure for `CCC(=C(c1ccc(O)cc1)c1ccc(OCCN(C)C)cc1)c1ccccc1` [4-Hydroxytamoxifen] is 9.1 min; for `CC(C)(C)NCC(O)COc1ccccc1C1CCCC1` (stereo not drawn) [Penbutolol] it is 9.01 min.
`O=C(O)COCC[N+]1([O-])CCN(C(c2ccccc2)c2ccc(Cl)cc2)CC1` (stereo not drawn) [Cetirizine-N-Oxide]: the LC retention time was 9.13 min.
The figure for `COc1ccccc1CC(=O)c1cn(CCC2CCCCC2)c2ccccc12` [RCS-8] is 13 min; for `NCC1CCC(C(=O)O)CC1` (stereo not drawn) [Tranexamic acid] it is 1.79 min.
The figure for `CNCC(c1ccc(OC)cc1)C1(O)CCCCC1` (stereo not drawn) [Venlafaxine-N-Desmethyl (norvenlafaxine)] is 6.18 min; for `CC1CCN(CCCC(=O)c2ccc(F)cc2)CC1` [Melperone] it is 5.21 min.
The figure for `CC(=O)Oc1ccccc1C(=O)O` [Acetylsalicylic acid_NH4 adduct] is 4.8 min.
Take `CC(C)(C)C(NC(=O)c1nn(CC2CCCCC2)c2ccccc12)C(N)=O` (stereo not drawn) [MAB-CHMINACA]: the LC retention time is 11.8 min.
Take `CN1CCCN=C1COC(=O)C(O)(c1ccccc1)C1CCCCC1` (stereo not drawn) [Oxyphencyclimine]: the LC retention time was 7.98 min.
The figure for `CC(CC(=O)Nc1ccc(Cl)cc1Cl)N1CCCCC1` (stereo not drawn) [Clibucaine] is 6.27 min; for `O=C(CCCN1CCC(O)(c2ccc(Cl)cc2)CC1)c1ccc(F)cc1` [Haloperidol] it is 7.18 min.
On to `CCCNC1CCc2nc(N)sc2C1` (stereo not drawn) [Pramipexole], for which the LC retention time was 2.64 min.
As to `CCC(NC)C(=O)c1ccc2c(c1)OCO2` (stereo not drawn) [Butylone], the LC retention time was 4.34 min.
The figure for `CC(C)NCC(O)c1ccccc1Cl` (stereo not drawn) [Clorprenaline] is 4.76 min.
The figure for `COc1cc(CCN)cc(OC)c1OC` [Mescaline] is 3.88 min; for `CN1C(=O)CC(=O)N(c2ccccc2)c2cc(Cl)ccc21` [Clobazam] it is 8.08 min.
The figure for `CC(C)NCC(O)COc1ccc(CC(=O)O)cc1` (stereo not drawn) [Atenolol acid (Metoprolol acid)] is 3.93 min; for `Cc1ncc([N+](=O)[O-])n1CCCO` [Ternidazole] it is 4.21 min; for `CC(C)C(O)(c1ccc(OC(F)(F)F)cc1)c1cncnc1` (stereo not drawn) [Flurprimidol] it is 9.62 min.
As to `O=C(NC(=O)c1ccccc1Cl)Nc1ccc(OC(F)(F)F)cc1` [Triflumuron], the LC retention time was 11.2 min.
The figure for `Clc1nc(Cl)nc(Nc2ccccc2Cl)n1` [Anilazine (Dyrene)] is 9.74 min.
As to `CCCc1ccc(C(=O)c2cn(CCC)c3ccccc23)c2ccccc12` [JWH-180], the LC retention time was 12.7 min.
`COc1ccc(C(CN)C2(O)CCCCC2)cc1` [Venlafaxine- D L-N N-Didesmethyl]: the LC retention time is 6.34 min.
The figure for `CC12CCC(=O)C=C1C=CC1C2CCC2(C)C1CCC21CCC(=O)O1` (stereo not drawn) [Canrenone] is 9.77 min; for `Cc1cc(=O)[nH]c(C(C)C)n1` [Pyrimidinol] it is 4.49 min; for `COc1ccc(NC(=O)N(C)C)cc1Cl` [Metoxuron] it is 6.17 min.
The figure for `NC(=O)c1ccccc1C(=O)O` [Phthalamic acid] is 2.87 min.
For the compound `CCOC(=O)NCCOc1ccc(Oc2ccccc2)cc1` [Fenoxycarb], the LC retention time was 10.6 min.
For `Cc1[nH]c(=O)n(C(C)(C)C)c(=O)c1Cl` [Terbacil], the LC retention time was 7.33 min.
The figure for `CNC(=O)Oc1cc(C)cc(C)c1` [XMC (Group of peaks!)] is 7.78 min; for `NCC1(CC(=O)O)CCCCC1` [Gabapentin] it is 3.78 min; for `CCCCc1c(C)nc(NCC)[nH]c1=O` [Ethirimol] it is 8 min.
`CCOC(=O)COC(=O)c1cc(Oc2ccc(C(F)(F)F)cc2Cl)ccc1[N+](=O)[O-]` [Fluoroglycofen-ethyl]: the LC retention time was 11.7 min.
As for `COP(=S)(OC)Oc1ccc(S(C)=O)c(C)c1` (stereo not drawn) [Fenthion-sulfoxide], the LC retention time was 7.28 min.
The figure for `c1cc[c]([Sn+]([c]2ccccc2)[c]2ccccc2)cc1` [Fentin (triphenylstannylium) (1+)] is 10.4 min; for `CCOP(=S)(OCC)ON=C(C#N)c1ccccc1` [Phoxim] it is 11.2 min.
Regarding `CCOP(=S)(OCC)Oc1cnc2ccccc2n1` [Quinalphos], the LC retention time was 10.8 min.
As to `CC(C)(C)NCC(O)COc1nsnc1N1CCOCC1` (stereo not drawn) [Timolol], the LC retention time was 4.88 min.
Turning to `Fc1ccc(Oc2ccnc3cc(Cl)cc(Cl)c23)cc1` [Quinoxyphen], the LC retention time is 12.8 min.
As for `CCN1CCCC1CNC(=O)c1cc(S(=O)(=O)CC)c(N)cc1OC` (stereo not drawn) [Amisulpride], the LC retention time is 3.88 min.
In the case of `CC1Cc2ccccc2N1NC(=O)c1ccc(Cl)c(S(N)(=O)=O)c1` (stereo not drawn) [Indapamide], the LC retention time is 6.61 min.
Take `CCN(CC)CCOCCOC(=O)C(CC)(CC)c1ccccc1` [Oxeladin]: the LC retention time is 8.04 min.
The figure for `CC(C)OC(=O)Nc1ccccc1` [Propham] is 8.11 min.
The figure for `CCC1OC(=O)C(C)C(=O)C(C)C(OC2OC(C)CC(N(C)C)C2O)C(C)(OC)CC(C)C(=O)C(C)C2N(CCCCn3cnc(-c4cccnc4)c3)C(=O)OC12C` (stereo not drawn) [Telithromycin] is 7.25 min; for `CN(C)CCc1c[nH]c2ccc(O)cc12` [Bufotenin] it is 2.82 min; for `CC12C=CC(=O)C=C1CCC1C2CCC2(C)C(O)CCC12` (stereo not drawn) [Boldenone] it is 9.03 min.
The figure for `Nc1ccc(S(=O)(=O)Nc2cncc(Cl)n2)cc1` [Sulfaclozine] is 5.45 min; for `NC(=O)c1ccc(N)cc1` [4-Aminobenzamide] it is 2.37 min; for `COc1cnc(NS(=O)(=O)c2ccc(N)cc2)nc1` [Sulfameter (sulfumetin)] it is 4.18 min.
On to `CS(=O)(=O)c1ccc(C(=O)C2C(=O)CCCC2=O)c(Cl)c1` [Sulcotrione], for which the LC retention time was 5 min.
The figure for `c1ccc(C2(N3CCCCC3)CCCCC2)cc1` [Phencyclidine] is 5.74 min.
Take `NCCC(Oc1ccc(C(F)(F)F)cc1)c1ccccc1` (stereo not drawn) [Fluoxetine-nor]: the LC retention time was 8.58 min.
The figure for `O=C(O)C(c1ccccc1)C1CCCCN1` (stereo not drawn) [Ritalinic acid] is 4.61 min.
The figure for `COc1nc(C)nc(NC(=O)NS(=O)(=O)c2ccccc2CCC(F)(F)F)n1` [Prosulfuron] is 8.57 min; for `COc1ccc(N)cc1N` [4-Methoxy-1.3-phenylenediamine] it is 2.37 min; for `COc1cc(C(=O)NCc2ccc(OCCN(C)C)cc2)cc(OC)c1OC` [Trimethobenzamide] it is 4.86 min.
The figure for `Nc1cnn(-c2ccccc2)c(=O)c1Cl` [Chloridazone] is 5.34 min.
For `COP(=S)(OC)Oc1cc(Cl)c(I)cc1Cl` [Iodofenphos (Jodfenphos)], the LC retention time is 12.7 min.
The figure for `CCOCCN(C(=O)CCl)C(=C(C)C)c1ccccc1` [Pethoxamide] is 10.1 min; for `COc1cc(C(=O)c2cnc(N)nc2N)cc(OC)c1OC` [Trimethoprim (Impurity B)] it is 5.49 min; for `CC(C)(C)NCC(O)c1ccc(O)c(NC(N)=O)c1` (stereo not drawn) [Carbuterol] it is 2.89 min.
The figure for `CCCC(=O)OC1(C(=O)CCl)C(C)CC2C3CCC4=CC(=O)C=CC4(C)C3(F)C(=O)CC21C` (stereo not drawn) [Clobetasone butyrate] is 11.3 min; for `CCOP(=S)(OCC)SCCS(=O)CC` (stereo not drawn) [Disulfoton-sulfoxide] it is 7.86 min; for `CCc1cc2c(cc1CC)CC(NCC(O)c1ccc(O)c3[nH]c(=O)ccc13)C2` (stereo not drawn) [Indacaterol] it is 7.9 min.
As to `Clc1ccc2c(c1)C(c1ccccc1)=NCc1nncn1-2` [Estazolam], the LC retention time is 8.14 min.
The figure for `N#Cc1c[nH]cc1-c1cccc(Cl)c1Cl` [Fenpiclonil] is 8.91 min; for `CC(C)c1ccc(NC(N)=O)cc1` [Isoproturon-didemethyl (1-(4-Isoprophenyl)urea)] it is 7.76 min; for `CC1(C)CC(N)CC(C)(CN)C1` (stereo not drawn) [Isophorone diamine] it is 1.67 min.
The figure for `CC(C)(Oc1ccc(C(=O)c2ccc(Cl)cc2)cc1)C(=O)O` [Fenofibric acid] is 9.68 min; for `c1ccc2sc(SN3CCOCC3)nc2c1` [2-Morpholinothiobenzothiazole] it is 9.85 min; for `Cc1cc2c(s1)Nc1ccccc1N=C2N1CCN(C)CC1` [Olanzapine] it is 4.99 min.
Consider `COC(=O)c1ccccc1CS(=O)(=O)NC(=O)Nc1nc(OC)cc(OC)n1` [Bensulfuron-methyl], for which the LC retention time was 8.77 min.
In the case of `Cc1cc2n[nH]nc2cc1C` [Benzotriazole-5 6-di-Me], the LC retention time was 6.76 min.
The figure for `CCCC1CC(C(=O)NC(C(C)Cl)C2OC(SC)C(O)C(O)C2O)N(C)C1` (stereo not drawn) [Clindamycin] is 6.92 min.
